The values below come from ChEMBL document CHEMBL1201862, “PubChem BioAssay data set” (2004).

Common to all, as to assay: inhibition of tumour cell growth, NCI panel, 48 h
Test [1] has as its system A549.
The subject of test [2] is ACHN.
The test system of test [3] is DU-145.
In test [4] the test system is HL-60.
Test [5] has as its system HOP-62.
Test [6] deals with HOP-92.
Test [7] deals with Hs-578T.
Test [8] deals with LOX IMVI.
For test [9], the system named is M14.
Test [10] has as its system MDA-MB-231.
In test [11] the test system is NCI-H226.
Test [12] concerns NCI-H522.
Test [13] deals with OVCAR-4.
The test system of test [14] is PC-3.
In test [15] the test system is SF-268.
The test system of test [16] is SK-MEL-28.
Test [17] has as its system T47D.
In test [18] the test system is TK-10.
In test [19] the test system is LXFL 529.
Test [20] has as its system DMS-114.

SMILES strings stand for the structures.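 Five concentrations, 48 hours, 96-well plates. GI50 marks 50% less growth.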 Activity calls are given as the source filed them. Rule as the data show it: active = GI50 up to about 1.1 µM and inactive = higher.

As to `CCc1nnc2sc(-c3ccc(-c4ccc(Cl)cc4Cl)o3)nn12`, the GI50 in [1] is 73.5 µM (inactive); in [2], 82 µM (inactive); in test [3], 72.3 µM (inactive); in test [4], 27 µM (inactive); in test [5], 61.9 µM (inactive); in [6] it was 21.4 µM (inactive). Besides, the GI50 in test [7] is 74.8 µM (inactive); in test [8] it was 74.1 µM (inactive); in [9] it was > 100 µM (inactive); in [10], 35 µM (inactive); in test [11], 50.6 µM (inactive); in test [12], 52.4 µM (inactive). In addition, the GI50 in test [13] is 84.7 µM (inactive); in test [14] it was 30.1 µM (inactive); in test [15] it was 61.2 µM (inactive); in test [16], > 100 µM (inactive); in [17], 18 µM (inactive); in [18], 43.7 µM (inactive).
In the case of `CCN(CC)/[N+]([O-])=N/O`, the GI50 in test [1], in test [2], in test [4], in test [5], in [6] and in test [8] was > 100 µM (inactive) in each case. Moreover, the GI50 in test [19], in test [9], in test [11], in [12], in test [15] and in test [16] was > 100 µM (inactive) throughout. The GI50 in [18] is > 100 µM (inactive).
For `COc1ccc(/C=C2\CCC/C(=C\c3ccc(O)c(CN4CCCCC4)c3)C2=O)cc1`, the GI50 is 8 µM (inactive) in test [1]; 10.3 µM (inactive) in test [2]; 9.02 µM (inactive) in test [3]; 6.93 µM (inactive) in test [4]; 12.4 µM (inactive) in [5]; 9.79 µM (inactive) in test [6]. Also, the GI50 was 11.5 µM (inactive) in test [7]; 2.82 µM (inactive) in [8]; 4.06 µM (inactive) in [9]; 4.09 µM (inactive) in [10]; 6.67 µM (inactive) in test [11]; 2.96 µM (inactive) in [12]. Further, the GI50 in test [13] is 22.2 µM (inactive); in test [14], 4.74 µM (inactive); in [15], 3.31 µM (inactive); in [16], 11.3 µM (inactive); in test [17] it was 19.3 µM (inactive); in test [18], 5.77 µM (inactive).
In the case of `CN(C)CCOc1cc2c(c3ccccc13)-c1ccccc1C2O` (stereo not given), the GI50 in test [1] is 15.5 µM (inactive); in test [20] it was 11.7 µM (inactive); in test [4], 11.6 µM (inactive); in test [5], 14.9 µM (inactive); in test [6] it was 6.56 µM (inactive); in test [8], 10.2 µM (inactive). Also, the GI50 in test [11] was 13.7 µM (inactive); in test [12], 16 µM (inactive); in test [13], 17.9 µM (inactive); in [15], 14.5 µM (inactive); in test [16], 16 µM (inactive).
On to `COc1ccc(/N=C\c2ccc(N(CCC#N)S(=O)(=O)c3ccccc3)cc2C)cc1`, for which the GI50 in [1] is 26.5 µM (inactive); in test [2] it was 15.6 µM (inactive); in test [20], 13.2 µM (inactive); in test [4] it was 16.9 µM (inactive); in test [5], 25.1 µM (inactive); in test [6], > 100 µM (inactive). Besides, the GI50 was 8.99 µM (inactive) in [19]; 14.6 µM (inactive) in [9]; > 100 µM (inactive) in test [11]; > 100 µM (inactive) in test [12]; 74.6 µM (inactive) in [13]; 3.58 µM (inactive) in test [15]. Moreover, the GI50 was 39.9 µM (inactive) in test [16] and 22.9 µM (inactive) in test [18].
Turning to `O=C(NNC(=S)Nc1ccccc1)c1nsc2ccccc12`, the GI50 is 28.8 µM (inactive) in test [1]; 39.7 µM (inactive) in test [2]; 24.9 µM (inactive) in [20]; 20.1 µM (inactive) in [4]; 36.7 µM (inactive) in test [5]; 20.4 µM (inactive) in [6]. In addition, the GI50 in [8] is 23.7 µM (inactive); in test [19], 28.1 µM (inactive); in [9], 14.3 µM (inactive); in test [13], 96.8 µM (inactive); in [15], 30.1 µM (inactive); in test [16] it was 34.6 µM (inactive). For the same molecule, in [18], the GI50 was 41.3 µM (inactive).
With `COC(=O)CN(C)P(=O)(N1CC1)N1CC1`, the GI50 was > 100 µM (inactive) in test [1]; 71.4 µM (inactive) in [2]; 55.1 µM (inactive) in test [20]; 26.9 µM (inactive) in [4]; 76 µM (inactive) in test [8]; > 100 µM (inactive) in test [19]. Moreover, the GI50 in test [9] was > 100 µM (inactive); in test [12] it was > 100 µM (inactive); in test [13] it was > 100 µM (inactive); in [15], 89.7 µM (inactive); in [16], > 100 µM (inactive); in test [18] it was > 100 µM (inactive).
`COc1ccc2c(O)c3[n+](cc2c1OC)CCc1cc2c(cc1-3)OCO2`: the GI50 in test [1] was > 100 µM (inactive); in test [2], > 100 µM (inactive); in test [3], > 100 µM (inactive); in [4], 33.2 µM (inactive); in [5] it was > 100 µM (inactive); in test [6] it was > 100 µM (inactive). In addition, the GI50 is > 100 µM (inactive) in test [7]; 69 µM (inactive) in [8]; > 100 µM (inactive) in test [9]; > 100 µM (inactive) in test [10]; > 100 µM (inactive) in test [11]; 17 µM (inactive) in test [12]. In addition, the GI50 is > 100 µM (inactive) in test [13]; > 100 µM (inactive) in test [14]; > 100 µM (inactive) in [15]; 88.3 µM (inactive) in test [17]; > 100 µM (inactive) in [18].
`O[C@H]1[C@H]2[C@H](O)CCCN2C[C@H]1O` [TRIDOLGOSIR]: the GI50 in test [1], in [2], in test [20], in test [4], in [5] and in test [6] was > 100 µM (inactive) each time. Besides, the GI50 in [8], in test [19], in test [9], in [11], in [12] and in test [13] was > 100 µM (inactive) each time. The GI50 in test [15], in test [16] and in test [18] was > 100 µM (inactive) each time.
Turning to `C/C=C(/C)C(=O)O[C@H]1[C@H]2[C@@H]([C@@H](OC(C)=O)[C@H](C)C(=O)[C@@]34C[C@@H](C)C(=O)[C@]3(/C=C(\C)[C@H]1OC(C)=O)O4)C2(C)C`, the GI50 in test [2] was 3.8 µM (inactive); in [3], 1.66 µM (inactive); in [4], 0.305 µM (active); in test [5], 3.15 µM (inactive); in [6], 3.08 µM (inactive); in test [7], 5.64 µM (inactive). The GI50 in test [8] is 3.09 µM (inactive); in test [9], 2.47 µM (inactive); in test [10] it was 3.72 µM (inactive); in test [11], 3.51 µM (inactive); in [12], 3.28 µM (inactive); in [13], 4.9 µM (inactive). Moreover, the GI50 in [14] was 3.45 µM (inactive); in [15], 5.98 µM (inactive); in [17], 2.31 µM (inactive); in test [18], 3.45 µM (inactive).
Regarding `CSC1SCC2C(=O)N(C)C(C(C)C)C(=O)OCC(NC(=O)c3cnc4ccccc4n3)C(=O)NC(C)C(=O)N(C)C1C(=O)N(C)C(C(C)C)C(=O)OCC(NC(=O)c1cnc3ccccc3n1)C(=O)NC(C)C(=O)N2C` (stereo not given), the GI50 is 0.0075 µM (active) in test [1]; 0.0104 µM (active) in test [20]; 0.0031 µM (active) in [3]; 0.0193 µM (active) in test [4]; 0.0075 µM (active) in test [5]; 0.000374 µM (active) in [7]. Also, the GI50 in test [9] was 0.000828 µM (active); in test [10], 0.000906 µM (active); in test [11], 0.0075 µM (active); in test [13], 0.0075 µM (active); in [14], 0.000993 µM (active); in test [15] it was 0.0075 µM (active). Moreover, the GI50 in [17] is 0.000391 µM (active); in test [18] it was 0.00152 µM (active).
As for `COc1cc([C@@H]2c3cc4c(cc3[C@H](O)[C@H]3COC(=O)[C@H]23)OCO4)cc(OC)c1OC` [PODOFILOX], the GI50 was < 0.005 µM (active) in test [2]; 0.01 µM (active) in test [20]; < 0.005 µM (active) in [3]; < 0.005 µM (active) in [4]; 0.227 µM (active) in test [6]; < 0.005 µM (active) in test [7]. Further, the GI50 in test [8] was < 0.005 µM (active); in [19], 0.01 µM (active); in test [10], < 0.005 µM (active); in [11], < 0.005 µM (active); in [14], < 0.005 µM (active); in [15], < 0.005 µM (active). The GI50 in [16] was < 0.005 µM (active); in [17], 0.5 µM (active).
